According to paper PMC11354698, “Functional Characterization of an Odorant Receptor Expressed in Newly Hatched Larvae of Fall Armyworm Spodoptera frugiperda” (Insects, 2024):

Target: T1, SfruOR40/Orco (SfruOR40 co-expressed with SfruOrco) (Spodoptera frugiperda, UniProt A0A9R0D2T2)
T1 construct: gene LOC118267896; full-length ORF of SfruOR40 (395 residues); with Odorant receptor coreceptor
T1 sequence (A0A9R0D2T2 1-395): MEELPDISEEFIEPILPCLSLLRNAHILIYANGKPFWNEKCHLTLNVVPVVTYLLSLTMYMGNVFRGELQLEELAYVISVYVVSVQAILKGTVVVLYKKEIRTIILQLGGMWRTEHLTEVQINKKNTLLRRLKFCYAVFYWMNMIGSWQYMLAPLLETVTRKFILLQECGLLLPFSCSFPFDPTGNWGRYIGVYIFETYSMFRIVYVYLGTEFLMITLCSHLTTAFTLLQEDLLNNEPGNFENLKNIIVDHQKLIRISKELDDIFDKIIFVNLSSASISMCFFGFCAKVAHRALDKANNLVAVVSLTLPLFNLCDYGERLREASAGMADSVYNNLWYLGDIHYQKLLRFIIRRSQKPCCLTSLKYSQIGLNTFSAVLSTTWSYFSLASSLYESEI
T1 sequence (A0A9F1UC78 1-473 partner): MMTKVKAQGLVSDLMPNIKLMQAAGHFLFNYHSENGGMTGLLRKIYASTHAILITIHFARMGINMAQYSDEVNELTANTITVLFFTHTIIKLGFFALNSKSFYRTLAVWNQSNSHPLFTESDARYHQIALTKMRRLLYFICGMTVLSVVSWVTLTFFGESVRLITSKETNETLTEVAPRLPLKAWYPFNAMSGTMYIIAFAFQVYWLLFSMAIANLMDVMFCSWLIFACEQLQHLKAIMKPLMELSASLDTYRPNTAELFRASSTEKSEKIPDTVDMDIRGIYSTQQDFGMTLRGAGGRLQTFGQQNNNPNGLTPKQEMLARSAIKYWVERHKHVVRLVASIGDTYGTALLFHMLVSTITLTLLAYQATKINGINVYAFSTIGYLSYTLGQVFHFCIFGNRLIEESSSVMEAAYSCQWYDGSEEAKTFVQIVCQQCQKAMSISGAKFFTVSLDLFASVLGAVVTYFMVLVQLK
Assay: two-electrode voltage clamp, Xenopus oocytes
Type: cell-based
Conditions: agonist, 10^-4 M odorant, -80 mV, Ringer's buffer pH 7.6, 0.1% DMSO, n = 7

| mean current amplitude at 10^-4 M [nA] | SMILES |
| --- | --- |
| 90 | C=C1CC[C@H]2O[C@]2(C)CC[C@@H]2[C@@H]1CC2(C)C [(−)-trans-Caryophyllene oxide] |
| 111 | C=C1CC/C=C(\C)CC[C@@H]2[C@@H]1CC2(C)C [(−)-trans-Caryophyllene] |
| 206 | C/C1=C\CC/C(C)=C/CC(C)(C)/C=C/C1 [α-Humulene] |
